According to ChEMBL document CHEMBL1909046, “DrugMatrix in vitro pharmacology data”:

What was measured:
[1] = target: 5-hydroxytryptamine receptor 4 (Cavia porcellus, UniProt O70528); type: cell membranes, Dunkin-Hartley, Striatum, Membrane; note: in other assays of this panel Not Active means under 50% inhibition at 10 µM
Cytochrome P450 2C9 = Cytochrome P450 2C9 (Homo sapiens, UniProt P11712); conditions: bti-tn-5b1-4; note: in other assays of this panel Not Active means under 50% inhibition at 10 µM
Cytochrome P450 2C9, sequence (P11712 whole entry): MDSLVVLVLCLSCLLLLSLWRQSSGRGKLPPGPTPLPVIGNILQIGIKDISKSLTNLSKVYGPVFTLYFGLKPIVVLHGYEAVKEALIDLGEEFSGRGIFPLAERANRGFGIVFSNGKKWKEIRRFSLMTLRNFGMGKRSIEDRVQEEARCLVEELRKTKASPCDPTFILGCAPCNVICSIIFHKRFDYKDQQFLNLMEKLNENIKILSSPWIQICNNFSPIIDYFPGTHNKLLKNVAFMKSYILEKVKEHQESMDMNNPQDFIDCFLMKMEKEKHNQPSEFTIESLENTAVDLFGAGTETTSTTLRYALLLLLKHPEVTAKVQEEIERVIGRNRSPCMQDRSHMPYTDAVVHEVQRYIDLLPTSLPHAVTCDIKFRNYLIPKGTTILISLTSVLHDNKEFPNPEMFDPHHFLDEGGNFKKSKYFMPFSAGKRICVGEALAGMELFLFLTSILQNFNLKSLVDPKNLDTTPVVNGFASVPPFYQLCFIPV

[2] = target: Epidermal growth factor receptor (Homo sapiens, UniProt P00533); assay: DRUGMATRIX: Protein Tyrosine Kinase, EGF Receptor enzyme inhibition (substrate: Poly(Glu:Tyr)); type: cell-based, Insect cells; conditions: insect cells; Not Active = under 50% inhibition at 10 µM
Epidermal growth factor receptor, sequence (P00533 whole entry): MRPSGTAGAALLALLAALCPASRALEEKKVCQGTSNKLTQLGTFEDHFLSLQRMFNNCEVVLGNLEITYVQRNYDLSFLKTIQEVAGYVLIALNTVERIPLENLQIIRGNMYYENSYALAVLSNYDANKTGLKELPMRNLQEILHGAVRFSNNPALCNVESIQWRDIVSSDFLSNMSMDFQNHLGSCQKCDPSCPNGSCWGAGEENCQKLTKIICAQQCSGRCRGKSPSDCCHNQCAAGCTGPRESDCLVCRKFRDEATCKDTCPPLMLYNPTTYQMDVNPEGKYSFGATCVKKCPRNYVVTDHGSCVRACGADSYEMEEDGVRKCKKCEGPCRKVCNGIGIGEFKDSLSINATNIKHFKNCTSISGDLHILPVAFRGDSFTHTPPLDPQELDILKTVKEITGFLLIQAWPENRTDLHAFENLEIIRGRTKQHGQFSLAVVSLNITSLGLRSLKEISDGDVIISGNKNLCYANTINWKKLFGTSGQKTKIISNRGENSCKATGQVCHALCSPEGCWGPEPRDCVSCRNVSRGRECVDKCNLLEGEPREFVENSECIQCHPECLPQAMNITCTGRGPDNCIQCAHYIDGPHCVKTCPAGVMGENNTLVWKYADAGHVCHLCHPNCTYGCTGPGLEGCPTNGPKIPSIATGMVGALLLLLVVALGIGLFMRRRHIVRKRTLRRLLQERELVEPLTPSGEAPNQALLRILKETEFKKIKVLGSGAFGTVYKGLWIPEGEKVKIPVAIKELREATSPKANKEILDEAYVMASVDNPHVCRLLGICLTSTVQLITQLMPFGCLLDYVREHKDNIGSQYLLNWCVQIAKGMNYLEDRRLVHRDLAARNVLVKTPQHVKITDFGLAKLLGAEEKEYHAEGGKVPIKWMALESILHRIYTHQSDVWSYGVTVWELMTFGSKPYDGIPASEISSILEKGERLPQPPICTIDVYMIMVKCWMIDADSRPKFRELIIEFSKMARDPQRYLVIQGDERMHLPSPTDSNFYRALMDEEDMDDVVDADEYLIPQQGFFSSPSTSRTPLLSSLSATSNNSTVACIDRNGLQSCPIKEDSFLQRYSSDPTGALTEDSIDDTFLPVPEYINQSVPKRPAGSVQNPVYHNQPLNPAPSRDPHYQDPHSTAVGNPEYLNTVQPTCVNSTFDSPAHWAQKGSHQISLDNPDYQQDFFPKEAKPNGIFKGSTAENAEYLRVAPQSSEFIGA

[3] = target: Protein kinase C alpha type (Homo sapiens, UniProt P17252); type: cell-based; conditions: sf9;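 note: inhibition of PKCalpha kinase activity measured in an enzyme assay with histone as the phosphorylation substrate; in other assays of this panel Not Active means under 50% inhibition at 10 µM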
Cytochrome P450 2D6 = Cytochrome P450 2D6 (Homo sapiens, UniProt P10635); conditions: bti-tn-5b1-4; note: in other assays of this panel Not Active means under 50% inhibition at 10 µM
[4] = target: T1, Muscarinic acetylcholine receptor M5 (Homo sapiens, UniProt P08912); type: cell membranes, CHO-K1, Membrane; conditions: cho-k1; note: in other assays of this panel Not Active means under 50% inhibition at 10 µM
T1 sequence (P08912 whole entry): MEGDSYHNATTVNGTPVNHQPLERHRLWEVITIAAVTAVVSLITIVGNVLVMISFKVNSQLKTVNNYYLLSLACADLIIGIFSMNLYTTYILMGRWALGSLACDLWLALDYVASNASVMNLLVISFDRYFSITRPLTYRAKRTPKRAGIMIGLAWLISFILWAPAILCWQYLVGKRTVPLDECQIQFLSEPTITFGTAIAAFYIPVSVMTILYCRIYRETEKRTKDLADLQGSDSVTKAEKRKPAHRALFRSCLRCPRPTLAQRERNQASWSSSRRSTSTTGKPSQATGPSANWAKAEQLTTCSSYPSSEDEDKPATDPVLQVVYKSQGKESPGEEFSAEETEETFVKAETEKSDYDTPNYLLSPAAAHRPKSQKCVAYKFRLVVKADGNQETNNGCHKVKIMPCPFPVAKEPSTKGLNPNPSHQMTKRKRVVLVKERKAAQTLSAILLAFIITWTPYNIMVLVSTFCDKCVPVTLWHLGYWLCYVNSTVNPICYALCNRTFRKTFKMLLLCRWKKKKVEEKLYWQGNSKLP

[5] = target: Sigma non-opioid intracellular receptor 1 (Homo sapiens, UniProt Q99720); assay: DRUGMATRIX: Sigma1 radioligand binding (ligand: [3H] Haloperidol); type: cell membranes, Jurkat, Membrane; conditions: Not Active = under 50% inhibition at 10 µM; for Ki: read-out: Ki
Sigma non-opioid intracellular receptor 1, sequence (Q99720 whole entry): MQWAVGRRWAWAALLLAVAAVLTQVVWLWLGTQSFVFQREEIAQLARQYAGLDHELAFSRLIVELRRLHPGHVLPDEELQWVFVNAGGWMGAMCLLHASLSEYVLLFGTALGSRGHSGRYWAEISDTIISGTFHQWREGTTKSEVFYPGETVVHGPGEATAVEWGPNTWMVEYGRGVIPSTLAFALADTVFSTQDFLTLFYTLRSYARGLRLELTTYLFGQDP

Leukotriene C4 synthase = target: T2, Leukotriene C4 synthase (Cavia porcellus, UniProt A6XA80); assay: biochemical; type: tissue-based, Lung
T2 sequence (A6XA80 whole entry): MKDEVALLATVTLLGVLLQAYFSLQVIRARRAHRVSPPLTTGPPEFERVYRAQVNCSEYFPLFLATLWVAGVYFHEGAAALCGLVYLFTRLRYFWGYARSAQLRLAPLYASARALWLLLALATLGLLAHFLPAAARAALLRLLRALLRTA

[6] = DRUGMATRIX: Platelet-Derived Growth Factor (PDGF) radioligand binding (ligand: [125I] PDGF); type: cell-based; conditions: nih3t3; Not Active = under 50% inhibition at 10 µM
[7] = DRUGMATRIX: Glutamate, NMDA, Phencyclidine radioligand binding (ligand: [3H] TCP); type: cell membranes, Rattus norvegicus, Wistar, Cerebral cortex, Membrane; conditions: Not Active = under 50% inhibition at 10 µM
[8] = target: T3, C-X-C chemokine receptor type 2 (Homo sapiens, UniProt P25025); type: cell membranes, Membrane; conditions: cho-k1; note: in other assays of this panel Not Active means under 50% inhibition at 10 µM
T3 sequence (P25025 whole entry): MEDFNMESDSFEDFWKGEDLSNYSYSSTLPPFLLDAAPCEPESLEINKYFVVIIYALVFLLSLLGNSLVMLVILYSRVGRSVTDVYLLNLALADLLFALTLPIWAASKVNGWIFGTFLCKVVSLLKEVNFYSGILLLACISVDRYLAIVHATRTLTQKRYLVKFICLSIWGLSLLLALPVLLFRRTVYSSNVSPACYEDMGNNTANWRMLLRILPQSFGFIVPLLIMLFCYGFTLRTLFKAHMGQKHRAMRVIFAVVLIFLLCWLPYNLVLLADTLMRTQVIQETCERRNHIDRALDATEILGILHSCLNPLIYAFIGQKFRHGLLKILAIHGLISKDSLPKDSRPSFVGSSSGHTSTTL

[9] = DRUGMATRIX: Tumor Necrosis Factor (TNF), Non-Selective radioligand binding (ligand: [125I] TNF-alpha); type: cell membranes, Membrane; conditions: u-937; Not Active = under 50% inhibition at 10 µM
Nitric oxide synthase 1 = Nitric oxide synthase 1 (Rattus norvegicus, UniProt P29476); type: tissue-based, Cerebellum; note: in other assays of this panel Not Active means under 50% inhibition at 10 µM
Nitric oxide synthase 1, sequence (P29476 whole entry): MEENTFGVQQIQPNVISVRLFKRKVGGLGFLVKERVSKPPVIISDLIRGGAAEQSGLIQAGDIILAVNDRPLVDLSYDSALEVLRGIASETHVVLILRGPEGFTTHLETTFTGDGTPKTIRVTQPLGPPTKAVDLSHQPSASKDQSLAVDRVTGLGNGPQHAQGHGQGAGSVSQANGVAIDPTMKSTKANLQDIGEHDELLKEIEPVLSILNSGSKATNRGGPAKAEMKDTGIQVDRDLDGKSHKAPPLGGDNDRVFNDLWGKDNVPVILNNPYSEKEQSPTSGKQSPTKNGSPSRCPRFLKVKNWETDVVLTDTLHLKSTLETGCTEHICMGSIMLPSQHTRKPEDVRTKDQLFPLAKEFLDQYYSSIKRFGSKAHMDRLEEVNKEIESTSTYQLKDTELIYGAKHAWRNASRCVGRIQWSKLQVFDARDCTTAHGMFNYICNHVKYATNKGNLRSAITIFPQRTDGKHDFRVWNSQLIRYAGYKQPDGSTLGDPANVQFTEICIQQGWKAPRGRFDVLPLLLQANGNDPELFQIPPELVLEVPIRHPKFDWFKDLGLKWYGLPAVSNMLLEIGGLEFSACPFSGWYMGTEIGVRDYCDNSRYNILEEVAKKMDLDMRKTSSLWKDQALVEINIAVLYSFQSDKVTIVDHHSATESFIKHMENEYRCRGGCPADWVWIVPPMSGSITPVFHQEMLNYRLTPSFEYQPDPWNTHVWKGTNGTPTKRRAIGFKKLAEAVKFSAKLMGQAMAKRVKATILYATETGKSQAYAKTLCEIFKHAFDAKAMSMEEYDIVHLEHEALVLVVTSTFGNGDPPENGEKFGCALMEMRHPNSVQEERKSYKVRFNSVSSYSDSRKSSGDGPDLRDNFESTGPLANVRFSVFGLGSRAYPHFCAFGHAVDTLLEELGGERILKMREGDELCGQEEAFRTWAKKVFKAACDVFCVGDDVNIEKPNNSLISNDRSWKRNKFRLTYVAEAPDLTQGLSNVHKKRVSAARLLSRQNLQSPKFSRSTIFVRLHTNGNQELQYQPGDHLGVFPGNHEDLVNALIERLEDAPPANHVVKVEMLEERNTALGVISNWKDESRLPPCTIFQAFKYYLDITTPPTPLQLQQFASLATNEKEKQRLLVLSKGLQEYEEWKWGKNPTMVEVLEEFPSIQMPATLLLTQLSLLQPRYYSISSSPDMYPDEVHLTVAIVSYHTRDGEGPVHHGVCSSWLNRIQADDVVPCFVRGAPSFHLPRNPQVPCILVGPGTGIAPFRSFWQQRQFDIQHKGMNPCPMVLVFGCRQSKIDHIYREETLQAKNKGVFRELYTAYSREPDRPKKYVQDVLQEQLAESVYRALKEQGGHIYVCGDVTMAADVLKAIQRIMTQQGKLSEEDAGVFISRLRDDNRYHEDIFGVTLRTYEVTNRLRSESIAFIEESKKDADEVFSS

[10] = target: Platelet-activating factor receptor (Homo sapiens, UniProt P25105); assay: biochemical; type: tissue-based; conditions: platelet; note: in other assays of this panel Not Active means under 50% inhibition at 10 µM
Platelet-activating factor receptor, sequence (P25105 whole entry): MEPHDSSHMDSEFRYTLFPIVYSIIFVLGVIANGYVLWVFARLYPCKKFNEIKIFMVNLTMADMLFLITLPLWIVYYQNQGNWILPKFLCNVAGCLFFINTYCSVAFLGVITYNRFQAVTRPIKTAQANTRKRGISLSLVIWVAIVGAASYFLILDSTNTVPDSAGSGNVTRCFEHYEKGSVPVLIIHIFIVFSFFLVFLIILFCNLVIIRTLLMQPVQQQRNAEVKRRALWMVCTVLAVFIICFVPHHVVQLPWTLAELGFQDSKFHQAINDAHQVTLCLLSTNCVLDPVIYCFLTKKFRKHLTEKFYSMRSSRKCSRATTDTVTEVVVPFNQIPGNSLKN

5-hydroxytryptamine receptor 4, sequence (O70528 whole entry): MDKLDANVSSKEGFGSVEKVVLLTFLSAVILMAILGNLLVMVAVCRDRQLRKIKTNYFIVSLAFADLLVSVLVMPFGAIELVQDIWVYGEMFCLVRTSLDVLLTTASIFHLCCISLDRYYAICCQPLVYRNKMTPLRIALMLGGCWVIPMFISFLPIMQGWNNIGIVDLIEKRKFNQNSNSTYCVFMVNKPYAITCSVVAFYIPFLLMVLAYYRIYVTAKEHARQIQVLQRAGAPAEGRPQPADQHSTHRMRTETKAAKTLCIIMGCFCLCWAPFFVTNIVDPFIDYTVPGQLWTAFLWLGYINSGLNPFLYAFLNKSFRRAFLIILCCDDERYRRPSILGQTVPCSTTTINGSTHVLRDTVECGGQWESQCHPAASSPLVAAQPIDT

| SMILES | IC50 [1] | IC50 (Cytochrome P450 2C9) | Ki (Cytochrome P450 2C9) | IC50 [2] | IC50 [3] | IC50 (Cytochrome P450 2D6) | Ki (Cytochrome P450 2D6) | IC50 [4] | IC50 ([5]; jurkat) | IC50 (Leukotriene C4 synthase) | IC50 [6] | Ki [6] | IC50 [7] | Ki [7] | IC50 [8] | IC50 [9] | Ki [9] | IC50 (Nitric oxide synthase 1) | IC50 [10] | other results |
| --- | --- | --- | --- | --- | --- | --- | --- | --- | --- | --- | --- | --- | --- | --- | --- | --- | --- | --- | --- | --- |
| CC=CC(=O)N(CC)c1ccccc1C | Not Active | Not Active | Not Active | Not Active | Not Active | Not Active | Not Active | Not Active | Not Active | Not Active | Not Active | Not Active | Not Active | Not Active | Not Active | Not Active | Not Active | Not Active | Not Active |  |
| COc1ccc2c(c1)c(CC(=O)OCC(=O)O)c(C)n2C(=O)c1ccc(Cl)cc1 [ACEMETACIN] | Not Active | Not Active | Not Active | Not Active | Not Active | Not Active | Not Active | Not Active | Not Active | Not Active | Not Active | Not Active | Not Active | Not Active | Not Active | Not Active | Not Active | Not Active | Not Active |  |
| CCCSc1ccc2nc(NC(=O)OC)[nH]c2c1 [ALBENDAZOLE] | Not Active | Not Active | Not Active | Not Active | Not Active | Not Active | Not Active | Not Active | Not Active | Not Active | Not Active | Not Active | Not Active | Not Active | Not Active | Not Active | Not Active | Not Active | Not Active |  |
| N=C(N)NCCCCNC(=N)N.O=S(=O)(O)O [ARCAINE SULFATE] | Not Active | Not Active | Not Active | Not Active | Not Active | Not Active | Not Active | Not Active | Not Active | Not Active | Not Active | Not Active | Not Active | Not Active | Not Active | Not Active | Not Active | Not Active | Not Active |  |
| CC(C)(Oc1ccc(CCNC(=O)c2ccc(Cl)cc2)cc1)C(=O)O [BEZAFIBRATE] | Not Active | Not Active | Not Active | Not Active | Not Active | Not Active | Not Active | Not Active | Not Active | Not Active | Not Active | Not Active | Not Active | Not Active | Not Active | Not Active | Not Active | Not Active | Not Active |  |
| CCc1ccc(C(=O)C(C)CN2CCCCC2)cc1 (configuration not stated) [EPERISONE] | Not Active | Not Active | Not Active | Not Active | Not Active |  |  | Not Active |  | Not Active | Not Active | Not Active | Not Active | Not Active | Not Active | Not Active | Not Active | Not Active | Not Active | IC50 ([5]; read-out: IC50): 4.05 nM; Ki [5]: 1.7 nM |
| CC(C)n1c(/C=C/C(O)CC(O)CC(=O)O)c(-c2ccc(F)cc2)c2ccccc21 (configuration not stated) [FLUVASTATIN] | Not Active |  |  | Not Active | Not Active | Not Active | Not Active | Not Active | Not Active | Not Active | Not Active | Not Active | Not Active | Not Active | Not Active | Not Active | Not Active | Not Active | Not Active |  |
| O=P1(NCCCl)OCCCN1CCCl (configuration not stated) [IFOSFAMIDE] | Not Active |  |  | Not Active | Not Active |  |  | Not Active | Not Active | Not Active | Not Active | Not Active | Not Active | Not Active | Not Active | Not Active | Not Active | Not Active | Not Active |  |
| Fc1ccc([C@@H]2CCNC[C@H]2COc2ccc3c(c2)OCO3)cc1 [PAROXETINE] | Not Active | Not Active | Not Active | Not Active | Not Active |  |  |  |  | Not Active | Not Active | Not Active | Not Active | Not Active | Not Active | Not Active | Not Active | Not Active | Not Active | IC50 ([5]; read-out: IC50): 5370 nM; Ki [5]: 2260 nM |
| CNC(=O)Oc1ccc2c(c1)[C@]1(C)CCN(C)[C@@H]1N2C [PHYSOSTIGMINE] | Not Active | Not Active | Not Active | Not Active | Not Active |  |  | Not Active | Not Active | Not Active | Not Active | Not Active | Not Active | Not Active | Not Active | Not Active | Not Active | Not Active | Not Active |  |
| COc1ccc(CN(CCN(C)C)c2ccccn2)cc1 [PYRILAMINE] | Not Active | Not Active | Not Active | Not Active | Not Active |  |  | Not Active |  | Not Active | Not Active | Not Active | Not Active | Not Active | Not Active | Not Active | Not Active | Not Active | Not Active | IC50 ([5]; read-out: IC50): 1560 nM; Ki [5]: 655 nM |
